Measurements taken from paper PMC9762789, “Chromone-based monoamine oxidase B inhibitor with potential iron-chelating activity for the treatment of Alzheimer’s disease” (Journal of Enzyme Inhibition and Medicinal Chemistry, 2022).
Read-outs that look alike come from different tables or passages of the source.

Experiments:
Human MAO-A = target: T1, Human MAO-A (Homo sapiens, UniProt P21397); assay: hMAO-A inhibition assay; format: biochemical; settings: read-out: hMAO-A inhibitory rate at 10 μM; 10 μM (highest concentration tested)
T1 construct: purchased Sigma-Aldrich
T1 sequence (P21397 1-527): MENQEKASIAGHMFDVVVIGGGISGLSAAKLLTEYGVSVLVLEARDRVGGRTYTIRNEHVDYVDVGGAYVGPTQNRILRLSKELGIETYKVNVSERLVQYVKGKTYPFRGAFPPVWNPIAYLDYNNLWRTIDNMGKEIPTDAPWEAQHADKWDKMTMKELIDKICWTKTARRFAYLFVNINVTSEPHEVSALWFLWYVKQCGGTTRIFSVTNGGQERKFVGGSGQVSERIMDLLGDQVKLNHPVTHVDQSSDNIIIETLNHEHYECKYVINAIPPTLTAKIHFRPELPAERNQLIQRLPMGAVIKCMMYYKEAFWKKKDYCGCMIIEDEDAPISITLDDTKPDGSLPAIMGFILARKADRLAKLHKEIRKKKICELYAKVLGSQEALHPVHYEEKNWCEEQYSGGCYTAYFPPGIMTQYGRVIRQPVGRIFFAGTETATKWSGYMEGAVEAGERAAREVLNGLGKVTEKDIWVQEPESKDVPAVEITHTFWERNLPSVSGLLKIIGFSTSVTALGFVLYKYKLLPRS
Protocol: Further, the inhibitory activity of compounds against hMAO-A isoform was tested and calculated as a selectivity index [Selectivity index (SI): IC50 (hMAO-A)/IC50 (hMAO-B)].
(§1) The reagents and enzymes (Human MAO-B and Human MAO-A) applied in this experiment were purchased from Sigma-Aldrich. According to the manuals, all components (substrate solution and enzyme solution) are diluted and placed aside for use. The detailed process has been mentioned in our early work[34].

[1] = pKa determination by automated spectrophotometric titration; format: physicochemical; settings: 0.1 M KCl solution
[2] = iron (III) affinity constants and pFe3+ by spectrophotometric titration; format: physicochemical; settings: for Log β1 / Log β2 / Log β3: DMSO: KCl (0.1 M) = 1:1.5 (v/v); for pFe^3+: calculated from Log β values obtained in DMSO: KCl (0.1 M) = 1:1.5 (v/v)
MAO-B = target: T2, MAO-B (Homo sapiens, UniProt P27338); assay: hMAO-B inhibition assay; format: biochemical; settings: for inhibition at 0.1 µM: hMAO-B, 100 nM, read-out: Inhibitory rate (%, 100 nM)
T2 construct: purchased Sigma-Aldrich
T2 sequence (P27338 1-520): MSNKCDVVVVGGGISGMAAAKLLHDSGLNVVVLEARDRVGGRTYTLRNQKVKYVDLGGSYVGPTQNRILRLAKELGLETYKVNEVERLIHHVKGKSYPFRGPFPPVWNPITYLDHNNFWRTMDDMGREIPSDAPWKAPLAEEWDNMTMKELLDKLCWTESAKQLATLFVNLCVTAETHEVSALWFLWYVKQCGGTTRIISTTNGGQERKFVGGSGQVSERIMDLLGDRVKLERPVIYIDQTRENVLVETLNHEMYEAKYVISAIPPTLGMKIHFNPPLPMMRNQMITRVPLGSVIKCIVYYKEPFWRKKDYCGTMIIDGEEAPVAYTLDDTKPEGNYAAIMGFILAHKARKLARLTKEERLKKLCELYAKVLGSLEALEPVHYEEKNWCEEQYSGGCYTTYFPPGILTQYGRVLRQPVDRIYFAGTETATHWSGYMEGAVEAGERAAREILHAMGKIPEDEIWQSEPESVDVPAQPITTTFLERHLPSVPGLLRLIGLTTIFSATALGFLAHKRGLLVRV
Protocol: as §1

Row | Compound | inhibition at 10 µM (Human MAO-A) | pKa ([1]; read-out: pKa1) | pKa ([1]; read-out: pKa2) | melting point | Log β1 [2] | Log β2 [2] | Log β3 [2] | pFe^3+ [2] | IC50 (MAO-B) | SI: hMAO-B selectivity index = IC50 (hMAO-A)/IC50 (hMAO-B) (MAO-B) | inhibition at 0.1 µM (MAO-B)
1 | Cc1c(O)c(=O)ccn1CCNC(=O)c1coc2ccccc2c1=O [Compound 8a, N-(2–(3-hydroxy-2-methyl-4-oxopyridin-1(4H)-yl)ethyl)-4-oxo-4H-chromene-3-carboxamide] | < 20% | 3.29 | 9.67 | 268 to 270 °C | 13.67 | 25.22 | 34.95 | 18.68 | 112 ± 1.3 nM | >89 | 42.2 ± 3.7%
2 | Cc1ccc2c(=O)c(C(=O)NCCn3ccc(=O)c(O)c3C)coc2c1 [Compound 8b, N-(2–(3-hydroxy-2-methyl-4-oxopyridin-1(4H)-yl)ethyl)-7-methyl-4-oxo-4H-chromene-3-carboxamide] | – | 3.32 | 9.58 | 270 to 272 °C | 13.74 | 25.04 | 34.36 | 18.35 | – | – | 35.79 ± 0.2%
3 | Cc1ccc2occ(C(=O)NCCn3ccc(=O)c(O)c3C)c(=O)c2c1 [Compound 8c, N-(2–(3-hydroxy-2-methyl-4-oxopyridin-1(4H)-yl)ethyl)-6-methyl-4-oxo-4H-chromene-3-carboxamide] | < 20% | 3.26 | 9.69 | 265 to 267 °C | 13.86 | 25.07 | 33.48 | 17.19 | 112 ± 5.7 nM | >89 | 42.1 ± 0.8%
4 | COc1ccc2c(=O)c(C(=O)NCCn3ccc(=O)c(O)c3C)coc2c1 [Compound 8d, N-(2–(3-hydroxy-2-methyl-4-oxopyridin-1(4H)-yl)ethyl)-7-methoxy-4-oxo-4H-chromene-3-carboxamide] | < 20% | 3.2 | 9.6 | 248 to 250 °C | 13.82 | 25.31 | 34.23 | 18.18 | 107 ± 5.6 nM | >93 | 41.9 ± 1.4%
5 | COc1ccc2occ(C(=O)NCCn3ccc(=O)c(O)c3C)c(=O)c2c1 [Compound 8e, N-(2–(3-hydroxy-2-methyl-4-oxopyridin-1(4H)-yl)ethyl)-6-methoxy-4-oxo-4H-chromene-3-carboxamide] | – | 3.18 | 9.67 | 260 to 262 °C | 13.67 | 25.38 | 35.37 | 19.08 | – | – | 34.3 ± 2.2%
6 | Cc1c(O)c(=O)ccn1CCNC(=O)c1coc2cc(OCc3ccccc3)ccc2c1=O [Compound 15a, 7-(Benzyloxy)-N-(2–(3-hydroxy-2-methyl-4-oxopyridin-1(4H)-yl)ethyl)-4-oxo-4H-chromene-3-carboxamide] | – | 3.3 | 9.59 | 225 to 227 °C | 13.77 | 24.72 | 32.17 | 16.45 | – | – | 39 ± 1.1%
7 | Cc1cccc(COc2ccc3c(=O)c(C(=O)NCCn4ccc(=O)c(O)c4C)coc3c2)c1 [Compound 15b, N-(2–(3-hydroxy-2-methyl-4-oxopyridin-1(4H)-yl)ethyl)-7-((3-methylbenzyl)oxy)-4-oxo-4H-chromene-3-carboxamide] | – | 3.06 | 9.73 | 238 to 240 °C | 13.64 | 25.57 | 34.21 | 17.80 | – | – | 39.1 ± 1.1%
8 | Cc1ccc(COc2ccc3c(=O)c(C(=O)NCCn4ccc(=O)c(O)c4C)coc3c2)cc1 [Compound 15c, N-(2–(3-hydroxy-2-methyl-4-oxopyridin-1(4H)-yl)ethyl)-7-((4-methylbenzyl)oxy)-4-oxo-4H-chromene-3-carboxamide] | – | 3.19 | 9.34 | 234 to 236 °C | 13.40 | 23.16 | 31.01 | 15.87 | – | – | 38.7 ± 0.5%
9 | Cc1c(O)c(=O)ccn1CCNC(=O)c1coc2cc(OCc3cccc(F)c3)ccc2c1=O [Compound 15d, 7-((3-Fluorobenzyl)oxy)-N-(2–(3-hydroxy-2-methyl-4-oxopyridin-1(4H)-yl)ethyl)-4-oxo-4H-chromene-3-carboxamide] | – | 3.36 | 9.52 | 237 to 239 °C | 13.50 | 25.31 | 34.85 | 19.01 | – | – | 38.5 ± 1.4%
10 | Cc1c(O)c(=O)ccn1CCNC(=O)c1coc2cc(OCc3ccc(F)cc3)ccc2c1=O [Compound 15e, 7-((4-Fluorobenzyl)oxy)-N-(2–(3-hydroxy-2-methyl-4-oxopyridin-1(4H)-yl)ethyl)-4-oxo-4H-chromene-3-carboxamide] | < 20% | 2.89 | 9.57 | 246 to 248 °C | 13.24 | 24.65 | 34.50 | 18.52 | 106.4 ± 0.2 nM | >94 | 42.4 ± 2.1%
11 | Cc1c(O)c(=O)ccn1CCNC(=O)c1coc2cc(OCc3cccc(Cl)c3)ccc2c1=O [Compound 15f, 7-((3-Chlorobenzyl)oxy)-N-(2–(3-hydroxy-2-methyl-4-oxopyridin-1(4H)-yl)ethyl)-4-oxo-4H-chromene-3-carboxamide] | < 20% | 3.35 | 9.52 | 230 to 232 °C | 13.79 | 25.03 | 33.91 | 18.09 | 129.5 ± 0.8 nM | – | 41.2 ± 2.8%
12 | Cc1c(O)c(=O)ccn1CCNC(=O)c1coc2cc(OCc3ccc(Cl)cc3)ccc2c1=O [Compound 15g, 7-((4-Chlorobenzyl)oxy)-N-(2–(3-hydroxy-2-methyl-4-oxopyridin-1(4H)-yl)ethyl)-4-oxo-4H-chromene-3-carboxamide] | – | 3.25 | 9.56 | 241 to 243 °C | 13.82 | 24.02 | 31.70 | 16.00 | – | – | 39.1 ± 0.5%
13 | Cc1ccc(COc2ccc3c(=O)c(CNCCn4ccc(=O)c(O)c4C)coc3c2)cc1 [Compound 17h, 3-Hydroxy-2-methyl-1–(2-(((7-((4-methylbenzyl)oxy)-4-oxo-4H-chromen-3-yl)methyl)amino)ethyl)pyridin-4(1H)-one] | – | 2.56 | 9.59 | 134 to 136 °C | 12.87 | 24.73 | 33.36 | 17.34 | – | – | 30.1 ± 3.7%
14 | Cc1c(O)c(=O)ccn1CCNCc1coc2cc(OCc3cccc(F)c3)ccc2c1=O [Compound 17i, 1–(2-(((7-((3-Fluorobenzyl)oxy)-4-oxo-4H-chromen-3-yl)methyl)amino)ethyl)-3-hydroxy-2-methylpyridin-4(1H)-one] | – | 2.58 | 9.68 | 215 to 217 °C | 12.93 | 24.99 | 34.10 | 17.81 | – | – | 39.48 ± 0.3%
